# Experimental data from patent US20240239861A1, “GLUCAGON-RECEPTOR SELECTIVE POLYPEPTIDES AND METHODS OF USE THEREOF” (i2O Therapeutics, Inc., priority 2016, published 2024).
# Where a SMILES comes first, the peptide text is derived from it. [ ]: non-standard residue; d: D form. Aib = CC(C)(N)C(=O)O
# Columns and labels:
# [1] = molecular target: human GCGR (Homo sapiens, UniProt P47871); assay: Peptide-receptor mediated cAMP accumulation (LANCE Ultra cAMP) in CHO-K1 cells transfected with human GCGR; type: cell-based; settings: for EC50: Table 3
# [2] = molecular target: human GLP-1R (Homo sapiens, UniProt P43220); assay: Peptide-receptor mediated cAMP accumulation (LANCE Ultra cAMP) in CHO-K1 cells transfected with human GLP-1R; type: cell-based; settings: hGLP1 pEC50 (cAMP mean (n = 3): 11 point curve starting at 1 nM, Table 3)
# human GLP-1R, sequence (P43220 24-463): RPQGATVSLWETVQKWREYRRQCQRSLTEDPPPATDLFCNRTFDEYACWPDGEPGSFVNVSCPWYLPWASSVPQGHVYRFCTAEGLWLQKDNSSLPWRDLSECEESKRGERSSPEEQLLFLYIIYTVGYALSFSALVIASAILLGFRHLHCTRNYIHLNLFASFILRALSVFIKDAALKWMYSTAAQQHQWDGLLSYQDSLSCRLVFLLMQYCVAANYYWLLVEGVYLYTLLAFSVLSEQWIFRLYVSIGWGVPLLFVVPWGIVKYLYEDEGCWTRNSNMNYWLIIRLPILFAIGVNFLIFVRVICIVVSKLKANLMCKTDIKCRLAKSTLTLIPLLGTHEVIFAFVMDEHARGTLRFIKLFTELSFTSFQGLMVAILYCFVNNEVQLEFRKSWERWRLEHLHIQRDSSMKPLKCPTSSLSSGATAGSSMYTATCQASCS
activation profile at the human glucagon receptor (GCGR) ([1]; FIG. 1A),Compound,EC50 [1],EC50 [2]
–,CC(C)C[C@H](NC(=O)[C@H](Cc1ccc(O)cc1)NC(=O)[C@H](CCCCN)NC(=O)[C@H](CO)NC(=O)[C@H](Cc1ccc(O)cc1)NC(=O)[C@H](CC(=O)O)NC(=O)[C@H](CO)NC(=O)[C@@H](NC(=O)[C@H](Cc1ccccc1)NC(=O)[C@@H](NC(=O)CNC(=O)[C@H](Cc1c[nH]cn1)NC(=O)[C@H](CO)NC(=O)[C@@H](N)Cc1ccc(O)cc1)[C@@H](C)O)[C@@H](C)O)C(=O)N[C@@H](CC(=O)O)C(=O)NC(C)(C)C(=O)N[C@@H](CCCCN)C(=O)N[C@@H](CCCNC(=N)N)C(=O)N[C@@H](C)C(=O)N[C@@H](CCC(N)=O)C(=O)N[C@@H](CCC(=O)O)C(=O)N[C@@H](Cc1ccccc1)C(=O)N[C@H](C(=O)NC(C)(C)C(=O)N[C@@H](Cc1c[nH]c2ccccc12)C(=O)N[C@@H](CC(C)C)C(=O)N[C@@H](CCC(=O)O)C(=O)N[C@@H](CC(=O)O)C(=O)N[C@@H](CCC(=O)O)C(=O)N[C@@H](CCC(=O)O)C(=O)N1CCC[C@H]1C(=O)N[C@@H](CO)C(=O)N[C@@H](CO)C(=O)NCC(=O)N[C@@H](C)C(=O)N1CCC[C@H]1C(=O)N1CCC[C@H]1C(=O)N1CCC[C@H]1C(=O)N[C@@H](CO)C(=O)O)C(C)C [Compound A10] (H-YSHGTFTSDYSKYLD[Aib]KRAQEFV[Aib]WLEDEEPSSGAPPPS-OH; N-terminus assumed),5.01 pM,> 1000 pM
–,CC(C)C[C@H](NC(=O)[C@H](Cc1ccc(O)cc1)NC(=O)[C@H](CCCCN)NC(=O)[C@H](CO)NC(=O)[C@H](Cc1ccc(O)cc1)NC(=O)[C@H](CC(=O)O)NC(=O)[C@H](CO)NC(=O)[C@@H](NC(=O)[C@H](Cc1ccccc1)NC(=O)[C@@H](NC(=O)CNC(=O)[C@H](Cc1c[nH]cn1)NC(=O)[C@H](CO)NC(=O)[C@@H](N)Cc1ccc(O)cc1)[C@@H](C)O)[C@@H](C)O)C(=O)N[C@@H](CC(=O)O)C(=O)NC(C)(C)C(=O)N[C@@H](CCCCN)C(=O)N[C@@H](CCCNC(=N)N)C(=O)N[C@@H](C)C(=O)N[C@@H](CCC(N)=O)C(=O)N[C@@H](CCC(=O)O)C(=O)N[C@@H](Cc1ccccc1)C(=O)N[C@H](C(=O)NC(C)(C)C(=O)N[C@@H](Cc1c[nH]c2ccccc12)C(=O)N[C@@H](CC(C)C)C(=O)N[C@@H](CCC(=O)O)C(=O)N[C@@H](CC(=O)O)C(=O)N[C@@H](CCC(=O)O)C(=O)N[C@@H](CCC(=O)O)C(=O)N[C@@H](CCC(=O)O)C(=O)N1CCC[C@H]1C(=O)N[C@@H](CO)C(=O)N[C@@H](CO)C(=O)NCC(=O)N[C@@H](C)C(=O)N1CCC[C@H]1C(=O)N1CCC[C@H]1C(=O)N1CCC[C@H]1C(=O)N[C@@H](CO)C(=O)O)C(C)C [Compound A11] (H-YSHGTFTSDYSKYLD[Aib]KRAQEFV[Aib]WLEDEEEPSSGAPPPS-OH; N-terminus assumed),6.31 pM,> 1000 pM
–,CC(C)C[C@H](NC(=O)[C@H](Cc1ccc(O)cc1)NC(=O)[C@H](CCCCN)NC(=O)[C@H](CO)NC(=O)[C@H](Cc1ccc(O)cc1)NC(=O)[C@H](CC(=O)O)NC(=O)[C@H](CO)NC(=O)[C@@H](NC(=O)[C@H](Cc1ccccc1)NC(=O)[C@@H](NC(=O)CNC(=O)[C@H](Cc1c[nH]cn1)NC(=O)[C@H](CO)NC(=O)[C@@H](N)Cc1ccc(O)cc1)[C@@H](C)O)[C@@H](C)O)C(=O)N[C@@H](CC(=O)O)C(=O)NC(C)(C)C(=O)N[C@@H](CCCCN)C(=O)N[C@@H](CCCNC(=N)N)C(=O)N[C@@H](C)C(=O)N[C@@H](CCC(N)=O)C(=O)N[C@@H](CCC(=O)O)C(=O)N[C@@H](Cc1ccccc1)C(=O)N[C@H](C(=O)NC(C)(C)C(=O)N[C@@H](Cc1c[nH]c2ccccc12)C(=O)N[C@@H](CC(C)C)C(=O)N[C@@H](CCC(=O)O)C(=O)N[C@@H](CC(=O)O)C(=O)N[C@@H](CCC(=O)O)C(=O)N[C@@H](CO)C(=O)N[C@@H](CO)C(=O)NCC(=O)N[C@@H](C)C(=O)N1CCC[C@H]1C(=O)N1CCC[C@H]1C(=O)N1CCC[C@H]1C(=O)N[C@@H](CO)C(=O)O)C(C)C [Compound A14] (H-YSHGTFTSDYSKYLD[Aib]KRAQEFV[Aib]WLEDESSGAPPPS-OH; N-terminus assumed),1 pM,> 1000 pM
–,CC(C)C[C@H](NC(=O)[C@H](Cc1ccc(O)cc1)NC(=O)[C@H](CCCCN)NC(=O)[C@H](CO)NC(=O)[C@H](Cc1ccc(O)cc1)NC(=O)[C@H](CC(=O)O)NC(=O)[C@H](CO)NC(=O)[C@@H](NC(=O)[C@H](Cc1ccccc1)NC(=O)[C@@H](NC(=O)CNC(=O)[C@H](Cc1c[nH]cn1)NC(=O)[C@H](CO)NC(=O)[C@@H](N)Cc1ccc(O)cc1)[C@@H](C)O)[C@@H](C)O)C(=O)N[C@@H](CC(=O)O)C(=O)NC(C)(C)C(=O)N[C@@H](CO)C(=O)N[C@@H](CCCNC(=N)N)C(=O)N[C@@H](C)C(=O)N[C@@H](CCC(N)=O)C(=O)N[C@@H](CCC(=O)O)C(=O)N[C@@H](Cc1ccccc1)C(=O)N[C@H](C(=O)NC(C)(C)C(=O)N[C@@H](Cc1c[nH]c2ccccc12)C(=O)N[C@@H](CC(C)C)C(=O)N[C@@H](CCC(=O)O)C(=O)N[C@@H](CC(=O)O)C(=O)N[C@@H](CCC(=O)O)C(=O)N1CCC[C@H]1C(=O)N[C@@H](CO)C(=O)N[C@@H](CO)C(=O)NCC(=O)N[C@@H](C)C(=O)N1CCC[C@H]1C(=O)N1CCC[C@H]1C(=O)N1CCC[C@H]1C(=O)N[C@@H](CO)C(=O)O)C(C)C [Compound A15] (H-YSHGTFTSDYSKYLD[Aib]SRAQEFV[Aib]WLEDEPSSGAPPPS-OH; N-terminus assumed),3.98 pM,> 1000 pM
–,CC(C)C[C@H](NC(=O)[C@H](Cc1ccc(O)cc1)NC(=O)[C@H](CCCCN)NC(=O)[C@H](CO)NC(=O)[C@H](Cc1ccc(O)cc1)NC(=O)[C@H](CC(=O)O)NC(=O)[C@H](CO)NC(=O)[C@@H](NC(=O)[C@H](Cc1ccccc1)NC(=O)[C@@H](NC(=O)CNC(=O)[C@H](Cc1c[nH]cn1)NC(=O)[C@H](CO)NC(=O)[C@@H](N)Cc1ccc(O)cc1)[C@@H](C)O)[C@@H](C)O)C(=O)N[C@@H](CC(=O)O)C(=O)NC(C)(C)C(=O)N[C@H](C(=O)N[C@@H](CCCNC(=N)N)C(=O)N[C@@H](C)C(=O)N[C@@H](CCC(N)=O)C(=O)N[C@@H](CCC(=O)O)C(=O)N[C@@H](Cc1ccccc1)C(=O)N[C@H](C(=O)NC(C)(C)C(=O)N[C@@H](Cc1c[nH]c2ccccc12)C(=O)N[C@@H](CC(C)C)C(=O)N[C@@H](CCC(=O)O)C(=O)N[C@@H](CC(=O)O)C(=O)N[C@@H](CCC(=O)O)C(=O)N1CCC[C@H]1C(=O)N[C@@H](CO)C(=O)N[C@@H](CO)C(=O)NCC(=O)N[C@@H](C)C(=O)N1CCC[C@H]1C(=O)N1CCC[C@H]1C(=O)N1CCC[C@H]1C(=O)N[C@@H](CO)C(=O)O)C(C)C)[C@@H](C)O [Compound A16] (H-YSHGTFTSDYSKYLD[Aib]TRAQEFV[Aib]WLEDEPSSGAPPPS-OH; N-terminus assumed),1.26 pM,> 1000 pM
–,CC(C)C[C@H](NC(=O)[C@H](Cc1ccc(O)cc1)NC(=O)[C@H](CCCCN)NC(=O)[C@H](CO)NC(=O)[C@H](Cc1ccc(O)cc1)NC(=O)[C@H](CC(=O)O)NC(=O)[C@H](CO)NC(=O)[C@@H](NC(=O)[C@H](Cc1ccccc1)NC(=O)[C@@H](NC(=O)CNC(=O)[C@H](Cc1c[nH]cn1)NC(=O)[C@H](CO)NC(=O)[C@@H](N)Cc1ccc(O)cc1)[C@@H](C)O)[C@@H](C)O)C(=O)N[C@@H](CC(=O)O)C(=O)NC(C)(C)C(=O)N[C@@H](CCCCN)C(=O)N[C@@H](C)C(=O)N[C@@H](C)C(=O)N[C@@H](CCC(N)=O)C(=O)N[C@@H](CCC(=O)O)C(=O)N[C@@H](Cc1ccccc1)C(=O)N[C@H](C(=O)NC(C)(C)C(=O)N[C@@H](Cc1c[nH]c2ccccc12)C(=O)N[C@@H](CC(C)C)C(=O)N[C@@H](CCC(=O)O)C(=O)N[C@@H](CC(=O)O)C(=O)N[C@@H](CCC(=O)O)C(=O)N1CCC[C@H]1C(=O)N[C@@H](CO)C(=O)N[C@@H](CO)C(=O)NCC(=O)N[C@@H](CCCCN)C(=O)N1CCC[C@H]1C(=O)N1CCC[C@H]1C(=O)N1CCC[C@H]1C(=O)N[C@@H](CO)C(=O)O)C(C)C [Compound A90] (H-YSHGTFTSDYSKYLD[Aib]KAAQEFV[Aib]WLEDEPSSGKPPPS-OH; N-terminus assumed),–,> 1000 pM
–,CC(C)C[C@H](NC(=O)[C@H](Cc1ccc(O)cc1)NC(=O)[C@H](CCCCN)NC(=O)[C@H](CO)NC(=O)[C@H](Cc1ccc(O)cc1)NC(=O)[C@H](CC(=O)O)NC(=O)[C@H](CO)NC(=O)[C@@H](NC(=O)[C@H](Cc1ccccc1)NC(=O)[C@@H](NC(=O)CNC(=O)[C@H](CCC(N)=O)NC(=O)[C@H](CO)NC(=O)[C@@H](N)Cc1ccc(O)cc1)[C@@H](C)O)[C@@H](C)O)C(=O)N[C@@H](CC(=O)O)C(=O)NC(C)(C)C(=O)N[C@@H](CCCCN)C(=O)N[C@@H](C)C(=O)N[C@@H](C)C(=O)N[C@@H](CCC(N)=O)C(=O)N[C@@H](CCC(=O)O)C(=O)N[C@@H](Cc1ccccc1)C(=O)N[C@H](C(=O)NC(C)(C)C(=O)N[C@@H](Cc1c[nH]c2ccccc12)C(=O)N[C@@H](CC(C)C)C(=O)N[C@@H](CCC(=O)O)C(=O)N[C@@H](CC(=O)O)C(=O)N[C@@H](CCC(=O)O)C(=O)N1CCC[C@H]1C(=O)N[C@@H](CO)C(=O)N[C@@H](CO)C(=O)NCC(=O)N[C@@H](CCCCN)C(=O)N1CCC[C@H]1C(=O)N1CCC[C@H]1C(=O)N1CCC[C@H]1C(=O)N[C@@H](CO)C(=O)O)C(C)C [Compound A96] (H-YSQGTFTSDYSKYLD[Aib]KAAQEFV[Aib]WLEDEPSSGKPPPS-OH; N-terminus assumed),–,> 1000 pM
much lower potency,GLP-1 (7-37): form of glucagon-like peptide-1 used as comparator in the receptor activation profiles of FIG. 1 [reference compound],–,–
